In ChEMBL document CHEMBL5321198, “Identification, in-vitro anti-plasmodial assessment and docking studies of series of tetrahydrobenzothieno[2,3-d]pyrimidine-acetamide molecular hybrids as potential antimalarial agents” (Eur J Med Chem, 2023):

Legend:
Plasmodium falciparum [1] = assay: Antimalarial activity against chloroquine resistant Plasmodium falciparum W2 infected in human erythrocytes assessed as inhibition of parasite growth incubated for 48 hrs by YOYO-1 dye based flow cytometric analysis; assay type: functional, organism-based; conditions: W2, 48 h
Plasmodium falciparum [2] = assay: Antimalarial activity against chloroquine sensitive Plasmodium falciparum 3D7 infected in human erythrocytes assessed as inhibition of parasite growth incubated for 48 hrs by YOYO-1 dye based flow cytometric analysis; assay type: functional, organism-based; conditions: 3D7, 48 h
Plasmodium falciparum [3] = assay: Resistance index, ratio of IC50 for antimalarial activity against chloroquine resistant Plasmodium falciparum W2 infected in human erythrocytes to IC50 for antimalarial activity against chloroquine sensitive Plasmodium falciparum 3D7 infected in human erythrocytes; assay type: functional
MDA-MB-231 = assay: Cytotoxicity against human MDA-MB-231 cells incubated for 24 hrs by MTT assay; assay type: functional, cell-based; conditions: MDA-MB-231, 24 h
A549 = assay: Cytotoxicity against human A549 cells incubated for 24 hrs by MTT assay; assay type: functional, cell-based; conditions: A549, 24 h
[4] = Cytotoxicity against human HPL1D cells incubated for 24 hrs by MTT assay; assay type: toxicity, cell-based
[5] = Selectivity index, ratio of IC50 for cytotoxicity against human HPL1D cells to IC50 for antimalarial activity against chloroquine resistant Plasmodium falciparum W2 infected in human erythrocytes; assay type: toxicity, cell-based; conditions: read-out: Ratio IC50
[6] = Selectivity index, ratio of IC50 for cytotoxicity against human A549 cells to IC50 for antimalarial activity against chloroquine resistant Plasmodium falciparum W2 infected in human erythrocytes; assay type: functional
[7] = Selectivity index, ratio of IC50 for cytotoxicity against human MDA-MB-231 cells to IC50 for antimalarial activity against chloroquine resistant Plasmodium falciparum W2 infected in human erythrocytes; assay type: functional
Erythrocyte [8] = assay: Cytotoxicity against human erythrocyte at 3 to 100 uM incubated for 3 hrs by microplate reader assay; assay type: toxicity, cell-based; conditions: dose 3-100 µM
Erythrocyte [9] = assay: Hemolytic activity in human erythrocyte assessed as hemolysis at 25 uM incubated for 3 hrs by microplate reader assay; assay type: toxicity, cell-based

COc1ccc(NC(=O)C(c2ccc(OC(F)(F)F)cc2)N2CCN(c3ncnc4sc5c(c34)CCCC5)CC2)cc1 (centres undefined)
IC50 (Plasmodium falciparum [1]): 61 nM | IC50 (Plasmodium falciparum [2]): 888 nM | Ratio IC50 (Plasmodium falciparum [3]): 0.068 | IC50 (MDA-MB-231): 460 nM | IC50 (A549): 370 nM | IC50 at 24 h [4]: 28.7 µM | selectivity ratio [5]: 472 | Ratio IC50 [6]: 6.08 | Ratio IC50 [7]: 7.56 | Activity (Erythrocyte [8]): Non-Toxic | Activity (Erythrocyte [9]): Toxic

O=C(O)C(c1ccc(OC(F)(F)F)cc1)N1CCN(c2ncnc3sc4c(c23)CCCC4)CC1 (centres undefined)
IC50 (Plasmodium falciparum [1]): > 10000 nM

COc1ccc(NC(=O)C(c2ccc(Cl)c(Cl)c2)N2CCN(c3ncnc4sc5c(c34)CCCC5)CC2)cc1 (centres undefined)
IC50 (Plasmodium falciparum [1]): 68 nM | IC50 (Plasmodium falciparum [2]): 933 nM | Ratio IC50 (Plasmodium falciparum [3]): 0.073 | IC50 (MDA-MB-231): 740 nM | IC50 (A549): 810 nM | IC50 at 24 h [4]: 31.3 µM | selectivity ratio [5]: 460 | Ratio IC50 [6]: 11.91 | Ratio IC50 [7]: 10.88 | Activity (Erythrocyte [8]): Non-Toxic | Activity (Erythrocyte [9]): Toxic

COc1ccc(NC(=O)C(c2ccc(F)c(F)c2)N2CCN(c3ncnc4sc5c(c34)CCCC5)CC2)cc1 (centres undefined)
IC50 (Plasmodium falciparum [1]): 133 nM | IC50 (Plasmodium falciparum [2]): 728 nM | Ratio IC50 (Plasmodium falciparum [3]): 0.183 | IC50 (MDA-MB-231): 310 nM | IC50 (A549): 750 nM | IC50 at 24 h [4]: 27.2 µM | selectivity ratio [5]: 205 | Ratio IC50 [6]: 5.64 | Ratio IC50 [7]: 2.33 | Activity (Erythrocyte [8]): Non-Toxic | Activity (Erythrocyte [9]): Toxic

Cc1ccc(C(C(=O)O)N2CCN(c3ncnc4sc5c(c34)CCCC5)CC2)cc1 (centres undefined)
IC50 (Plasmodium falciparum [1]): 8520 nM

O=C(O)C(c1ccc(Cl)c(Cl)c1)N1CCN(c2ncnc3sc4c(c23)CCCC4)CC1 (centres undefined)
IC50 (Plasmodium falciparum [1]): > 10000 nM

COc1ccc(NC(=O)C(c2ccc(C)cc2)N2CCN(c3ncnc4sc5c(c34)CCCC5)CC2)cc1 (centres undefined)
IC50 (Plasmodium falciparum [1]): 268 nM | IC50 (Plasmodium falciparum [2]): 692 nM | Ratio IC50 (Plasmodium falciparum [3]): 0.387 | Activity (Erythrocyte [8]): Non-Toxic | Activity (Erythrocyte [9]): Toxic

O=C(O)C(c1ccc(C(F)(F)F)cc1)N1CCN(c2ncnc3sc4c(c23)CCCC4)CC1 (centres undefined)
IC50 (Plasmodium falciparum [1]): 6630 nM

COc1ccc(NC(=O)C(c2ccc(F)cc2)N2CCN(c3ncnc4sc5c(c34)CCCC5)CC2)cc1 (centres undefined)
IC50 (Plasmodium falciparum [1]): 171 nM | IC50 (Plasmodium falciparum [2]): 1220 nM | Ratio IC50 (Plasmodium falciparum [3]): 0.173 | Activity (Erythrocyte [8]): Non-Toxic | Activity (Erythrocyte [9]): Toxic

COc1ccc(NC(=O)C(c2ccc(OC)cc2)N2CCN(c3ncnc4sc5c(c34)CCCC5)CC2)cc1 (centres undefined)
IC50 (Plasmodium falciparum [1]): 187 nM | IC50 (Plasmodium falciparum [2]): 698 nM | Ratio IC50 (Plasmodium falciparum [3]): 0.268 | Activity (Erythrocyte [8]): Non-Toxic | Activity (Erythrocyte [9]): Toxic

COc1ccc(NC(=O)C(c2ccc(C(F)(F)F)cc2)N2CCN(c3ncnc4sc5c(c34)CCCC5)CC2)cc1 (centres undefined)
IC50 (Plasmodium falciparum [1]): 56 nM | IC50 (Plasmodium falciparum [2]): 837 nM | Ratio IC50 (Plasmodium falciparum [3]): 0.067 | IC50 (MDA-MB-231): 110 nM | IC50 (A549): 80 nM | IC50 at 24 h [4]: 39.9 µM | selectivity ratio [5]: 716 | Ratio IC50 [6]: 1.43 | Ratio IC50 [7]: 1.97 | Activity (Erythrocyte [8]): Non-Toxic | Activity (Erythrocyte [9]): Toxic

COc1ccc(C(C(=O)O)N2CCN(c3ncnc4sc5c(c34)CCCC5)CC2)cc1 (centres undefined)
IC50 (Plasmodium falciparum [1]): > 10000 nM

O=C(O)C(c1ccc(F)c(F)c1)N1CCN(c2ncnc3sc4c(c23)CCCC4)CC1 (centres undefined)
IC50 (Plasmodium falciparum [1]): > 10000 nM

O=C(O)C(c1ccc(F)c(Cl)c1)N1CCN(c2ncnc3sc4c(c23)CCCC4)CC1 (centres undefined)
IC50 (Plasmodium falciparum [1]): > 10000 nM

COc1ccc(NC(=O)C(c2ccc(F)c(Cl)c2)N2CCN(c3ncnc4sc5c(c34)CCCC5)CC2)cc1 (centres undefined)
IC50 (Plasmodium falciparum [1]): 125 nM | IC50 (Plasmodium falciparum [2]): 1080 nM | Ratio IC50 (Plasmodium falciparum [3]): 0.116 | IC50 (MDA-MB-231): 520 nM | IC50 (A549): 430 nM | IC50 at 24 h [4]: 36.1 µM | selectivity ratio [5]: 288 | Ratio IC50 [6]: 3.43 | Ratio IC50 [7]: 4.15 | Activity (Erythrocyte [8]): Non-Toxic | Activity (Erythrocyte [9]): Toxic

O=C(O)C(c1ccc(F)cc1)N1CCN(c2ncnc3sc4c(c23)CCCC4)CC1 (centres undefined)
IC50 (Plasmodium falciparum [1]): > 10000 nM

COc1cccc2c1C(=O)c1c(O)c3c(c(O)c1C2=O)C[C@@](O)(C(=O)CO)C[C@@H]3O[C@H]1C[C@H](N)[C@H](O)[C@H](C)O1 [DOXORUBICIN]
IC50 (MDA-MB-231): 5800 nM
